Experiment: gradient 5% acetonitrile 3 min, to 50% in 2 min, to 85% in 15 min, held 3 min, 100 µL/min
Conditions: column: Zorbax Extend-C18 2.1 x 50 mm; eluents: water / acetonitrile, 0.1% formic acid
Method in brief: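 Pure standards were analyzed in mixtures of ~100 molecules using HPLC coupled to a quadrupole time-of-flight mass spectrometer, in both positive and negative ionization mode. Separation used a Zorbax Extend-C18 column (2.1 × 50 mm, 1.8 μm) at 100 μL/min, with water and acetonitrile each containing 0.1% formic acid. Dead and dwell volumes were 40 μL and 900 μL, and data were collected over 3 months. Retention time was read from computationally picked adduct peaks, each inspected manually.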

## O=C(Nc1ncccn1)c1c[nH]c2c(Cl)cccc2c1=O
  RP-LC retention time: 617 s

## O=C(c1ccc(F)cc1)N1CCC(n2c(-c3ccoc3)nc3cccnc32)C1 (centres undefined)
  RP-LC retention time: 712 s

## COc1ccc2c(c1)-c1nc(NC(=O)c3ccc(Br)cc3)sc1CC2
  RP-LC retention time: 1250 s

## O=C1CC(c2ccccc2)N(S(=O)(=O)c2cccc3nsnc23)CCCCCCN1 (centres undefined)
  RP-LC retention time: 886 s

## O=c1c(NC2CCCCC2)nc2ccncc2n1Cc1ccccc1
  RP-LC retention time: 745 s

## CCCC1NN(C)C2C(=O)NC(c3cc(S(=O)(=O)N4CCN(C)CC4)ccc3OCC)NC12 (centres undefined)
  RP-LC retention time: 722 s

## O=c1cc(-c2ccccc2)oc2c(O)c(O)ccc12
  RP-LC retention time: 720 s

## CCOC(=O)C(=O)Nc1ccc(-c2nc(-c3cc(C)ccc3C)co2)cc1
  RP-LC retention time: 1180 s

## Cc1ccc(Nc2c(-c3ccc(N(C)C)cc3)nc3c(C)cccn23)cc1
  RP-LC retention time: 805 s

## Cc1cc(C)c2c(N3CCOCC3)nc(C(=O)N(C)Cc3ccco3)nc2n1
  RP-LC retention time: 611 s

## Cc1cccc(NC(=O)c2ccc3nn(CC(=O)Nc4ccc(C)c(F)c4)c(=O)n3c2)c1
  RP-LC retention time: 810 s

## COc1ccc(NC(=O)C2CCCN(c3nnc4ccc(Cl)cn34)C2)cc1OC (centres undefined)
  RP-LC retention time: 701 s

## Cc1ccc(S(=O)(=O)N2C(=O)CCC2C(=O)NC2CCCCCC2)cc1C (centres undefined)
  RP-LC retention time: 1010 s

## O=c1c2nc(-c3ccc(F)cc3)cn2ccn1-c1ccc(F)c(Cl)c1
  RP-LC retention time: 888 s

## COc1cc(NC(=O)CSc2nccc(N3CCN(c4cc(C)ccc4C)CC3)n2)cc(OC)c1
  RP-LC retention time: 673 s

## CS(=O)(=O)Nc1ccc(C2(C(=O)NCc3cccs3)CCCCC2)cc1
  RP-LC retention time: 851 s

## Cc1ccc2c(C(=O)Nc3ccc(N4CCOCC4)cc3)cc(NC(=O)C(C)C)cc2n1
  RP-LC retention time: 618 s

## O=C(CCCc1nc2cccnc2n1Cc1ccccc1)N1CCN(c2ncccn2)CC1
  RP-LC retention time: 563 s

## CC1CCCCN1c1nc(-c2ccc(C(C)(C)C)cc2)nc2ccccc12 (centres undefined)
  RP-LC retention time: 1050 s

## CC1=C(C(=O)NCCCOC(C)C)C2(CCN(Cc3ccccc3)CC2)OC1=O
  RP-LC retention time: 644 s

## CCCC(=O)Nc1ccc2c(c1)CN(C(=O)c1ccc(F)c(F)c1)C(C(=O)N(C)C)C2 (centres undefined)
  RP-LC retention time: 736 s

## Cc1cccc(NC(=O)N2CCc3c(c(-c4nc(C5CC5)no4)nn3C)C2)c1
  RP-LC retention time: 854 s

## Cc1ccc(S(=O)(=O)NC(C)c2nc(-c3ccc(-c4csc(C)n4)cc3)no2)cc1 (centres undefined)
  RP-LC retention time: 1020 s

## O=C(c1ccc(-c2cccnc2)nc1)N1CCN(c2ccccc2Cl)CC1
  RP-LC retention time: 764 s

## CCOC(=O)c1[nH]c(C)c(CCC(=O)N2CCC(C(=O)NCCN3CCN(CC)CC3)CC2)c1C
  RP-LC retention time: 577 s

## COCC(=O)Nc1nc(-c2ccc3c(c2)NC(=O)C(C)O3)cs1 (centres undefined)
  RP-LC retention time: 691 s

## COc1ccc(-c2oc3c(CC=C(C)C)c(O)cc(O)c3c(=O)c2O)cc1
  RP-LC retention time: 1040 s

## CCN(CC)CCNC(=O)Cn1nc(-c2ccc(Cl)cc2)ccc1=O
  RP-LC retention time: 624 s

## COc1ccc(-c2noc(Cc3nnc(-c4cccc(F)c4)o3)n2)cc1F
  RP-LC retention time: 1000 s

## COc1ccc(NC(=O)CN2CCc3[nH]c4c(C)c(C)ccc4c(=O)c3C2)c(OC)c1
  RP-LC retention time: 626 s

## Cc1ccc(Cl)cc1S(=O)(=O)NCC(O)Cc1ccccc1 (centres undefined)
  RP-LC retention time: 858 s

## COCCOC1CCOC2(CCN(C(=O)c3ccsc3)CC2)C1 (centres undefined)
  RP-LC retention time: 670 s

## Cc1ccc(Nc2nc(-c3ccc(C)cc3)c(CC(=O)O)s2)cc1
  RP-LC retention time: 946 s

## CCc1nccn1Cc1nc(-c2ccccc2Cl)no1
  RP-LC retention time: 640 s

## CCOC(=O)CC1(NC(=O)N2CCN(c3nc4ccccc4n3C)CC2)CCCCC1
  RP-LC retention time: 593 s

## Cn1c(=O)sc2cc(S(=O)(=O)N3CCC(C(=O)NCc4ccccn4)CC3)ccc21
  RP-LC retention time: 611 s

## Cc1ccc(-c2cn3c(n2)N(C(=O)c2sc(C)nc2C)CCC3)cc1
  RP-LC retention time: 642 s

## CCCC(=O)Nc1ccc2c(c1)C(=O)CC(c1ccc3c(c1)OCO3)O2 (centres undefined)
  RP-LC retention time: 808 s

## COc1ccc(OC)c(-c2[nH]ncc2CN2CC(F)(F)C[C@H]2CN2CCCCCC2)c1
  RP-LC retention time: 578 s

## COc1cc(-c2nc3ncccn3c2NCc2ccc(C)cc2)cc(OC)c1OC
  RP-LC retention time: 746 s

## O=C(NCCCN1CCN(c2ccccc2)CC1)C1CCCN(c2nc3cccnc3s2)C1 (centres undefined)
  RP-LC retention time: 643 s

## CCN1C(=O)c2ccccc2Oc2ccc(C(=O)NCCc3cccs3)cc21
  RP-LC retention time: 944 s

## O=C(N[C@@H]1CN(Cc2ccc(C(F)(F)F)cc2)CC[C@@H]1CO)C1CC1
  RP-LC retention time: 614 s

## COc1cccc(Cn2c(C)c(CNCc3cccnc3)c(C(=O)O)c2C)c1
  RP-LC retention time: 625 s

From the METLIN SMRT retention time set (Domingo-Almenara et al. 2019)
